Reference: PubChem BioAssay (NCI)
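Test compounds were applied to cells in 96-well plates for 48 hours at 5 doses. TGI marks complete inhibition of growth.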

Columns and labels:
Assay in all cases: NCI tumour cell line growth inhibition, 48 h
[1] = system: COLO 205 colon
[2] = system: DMS 114 small cell lung
[3] = system: DMS 273 small cell lung
[4] = system: HL-60(TB) leukemia
[5] = system: HOP-62 NSCLC
[6] = system: KM12 colon
[7] = system: KM20L2 colon
[8] = system: M19-MEL melanoma
[9] = system: MALME-3M melanoma
[10] = system: MOLT-4 leukemia
[11] = system: NCI-H226 lung
[12] = system: OVCAR-3 ovarian
[13] = system: P388 leukemia
[14] = system: SK-MEL-2 melanoma
[15] = system: SNB-78 CNS
[16] = system: SW-620 colon
[17] = system: UO-31 renal
[18] = system: ACHN renal
[19] = system: M14 melanoma
[20] = system: TK-10 renal

Compound	TGI [1] [µM]	TGI [2] [µM]	TGI [3] [µM]	TGI [4] [µM]	TGI [5] [µM]	TGI [6] [µM]	TGI [7] [µM]	TGI [8] [µM]	TGI [9] [µM]	TGI [10] [µM]	TGI [11] [µM]	TGI [12] [µM]	TGI [13] [µM]	TGI [14] [µM]	TGI [15] [µM]	TGI [16] [µM]	TGI [17] [µM]	TGI [18] [µM]	TGI [19] [µM]	TGI [20] [µM]
Cc1cc(N=Nc2ccc(N=Nc3c(O)c(S(=O)(=O)O)cc4cc(S(=O)(=O)O)ccc34)cc2C)ccc1N=Nc1ccc2cc(S(=O)(=O)O)cc(S(=O)(=O)O)c2c1	> 100	> 100	> 100	> 100	> 100	> 100	> 100	> 100	> 100	> 100	> 100	> 100	> 73.1	> 100	> 100	> 100	> 100			
Cn1c(=O)c2nc(N3CCCCC3)cnc2n(C)c1=O	> 100			> 100	> 100	> 100	> 100	> 100	> 100	> 100		> 100				> 100	> 100	> 100	> 100	> 100
CC1=C2C(O)C(C(C)C(=O)NC(C)C)CCC2(C)C=CC1=O (stereo unspecified)	> 100	> 100	> 100	> 100	> 100	> 100	> 100			> 100	> 100	> 100	> 100	> 100	> 100	> 100	> 100			
COc1cc2c(cc1OC)C(Cc1c3ccccc3cc3ccccc13)N(C)CC2 (stereo unspecified)	29.7		74.1	31.3	48.7	35.9	40.5	49.8		58.3	60.2	> 61.1	47.6	32.6	> 73.1	> 71.5	57.4			
CCOC(=O)NC(=O)c1cn(CCSCCOC(=O)NCCCCCCNC(=O)OCCSCCn2cc(C(=O)NC(=O)OCC)c(=O)[nH]c2=O)c(=O)[nH]c1=O	> 100	> 100	> 100	> 100	> 100		> 100	> 100	> 100			> 100			> 100	> 100	> 100	> 100	> 100	> 100
